Source: publication PMC9887927, “Biochemical characterization and insights into the potency of the acidic Aspergillus niger NRC114 purified α-galactosidase in removing raffinose family oligosaccharides from soymilk yogurt” (BMC Biotechnology, 2023)

System: T1, Aspergillus niger NRC114 α-galactosidase
T1 construct: gene aglB; native secreted enzyme purified from culture filtrate (ammonium sulfate, Sephadex G-100, DEAE-Sephadex A-50); 64 kDa monomer by SDS-PAGE
Test: p-nitrophenol release, absorbance; Lineweaver-Burk plot
Format: biochemical
Conditions: pH 3.5, 60 °C; substrate range printed as 0.04–0.8 µM; printed unit doubtful (probably mM: compared with mM literature values, assay stock 4 mM)

Km: 0.000401 mM
Structure (SMILES): O=[N+]([O-])c1ccc(O[C@H]2O[C@H](CO)[C@H](O)[C@H](O)[C@H]2O)cc1 [p-nitrophenyl-α-D-galactopyranoside]
